Data reported in patent US11666561B2, “Compounds for use in regulating follicle maturation” (AARHUS UNIVERSITET, priority 2017, dated 2023).
Entries after “also recorded” stand apart in the source; their conditions may differ.

Tested on: primordial-to-primary follicle transition
Experiment: In vitro organ culture of mouse ovaries with compound, H&E histology and counting of primordial, primary and secondary follicles
Conditions: for effect on primordial-to-primary follicle transition / primordial follicle activation: in vitro cultured mouse ovaries, concentration not given
Protocol: Ovaries obtained from mice were washed twice with culture medium. Antagonists or agonists to be tested were dissolved in suitable solvents and added to the medium. As a control medium comprising solvent without the antagonist or agonist was used. One of the ovaries was cultured in a control medium and another was cultured with the antagonist or agonist. The tested antagonists or agonists and their concentrations are outlined in table 2.
Ovaries were incubated with antagonist at 37° C. and 5% CO2 for 24 and 96 hours, respectively (see table 3).
Cultures ovaries were fixed, embedded in paraffin and sliced microscopy. The sectioned ovaries were stained with hematoxylin and eosin (H&E) to visualize the morphology of the ovary by microscopy.
The number of primordial, primary and secondary follicles was determined, and it was determined whether the antagonist or agonist was capable of regulating folliculogenesis.
C57BL/6j×CBA F1 hybrid mice (Janvier Labs, France) were housed and bred in the animal facilities at Department of Biomedicine, Aarhus University. Animals were housed in a 12:12 h controlled light-dark environment and were provided with food and water ad libitum. 7-day-old female pups were used for the study.
Pups were sacrificed and ovaries were excised. Using a stereomicroscope MZ75 (Leica Microsystems, Germany), excess tissue was removed. During the dissection, ovaries were kept at 37° C. in culture medium: aMEM (Thermo Fisher) supplemented with 10% FBS (Thermo Fisher), 100 mIU/mL of FSH (Sigma-Aldrich), 100 IU/mL penicillin (Thermo Fisher), 100 μg/mL streptomycin (Thermo Fisher) and 1% Insulin-Transferrin-Selenium (Thermo Fisher). Isolated ovaries were transferred into well inserts (PET membrane ThinCert, 0.4 μm-pore size; Greiner bio-one) in 24-well plates (Tissue culture treated, cell culture plates; Costar). 200-300 μL of culture medium was added to the well below the insert and up to two ovaries were placed on the membrane of each insert. The culture medium was supplemented with different concentrations of the tested compounds; bpV(HOpic) (Sigma-Aldrich), Temsirolimus (Sigma-Aldrich), Ketotifen (Sigma-Aldrich), 3PO (Sigma-Aldrich), Dorsomorphin (Sigma-Aldrich), AICAR (Sigma-Aldrich), NCG (Sigma-Aldrich), and Dyphylline (Cayman Chemical). Up to six wells in the 24-well plate were used for inserts. Sterile dH2O was added to the rest of the wells to ensure humidity and reduce evaporation. The ovaries were cultured at 37° C., 5% CO2 for four days. 150 μL of medium was replaced every other day with fresh culture medium.
Ovaries kept in organ culture for four days were fixed for 24 hours in 4% paraformaldehyde solution at 4° C. After fixation, ovaries were dehydrated in ethanol series using 70%, 96% and 99.9% ethanol. Xylene was used as clearing agent before the ovaries were infiltrated in paraffin wax. 5 μm-sections of samples in paraffin were cut using a microtome (Cut 6062, SLEE medical, Germany). Paraffin sections were mounted on glass slides, paraffin was melted at 60° C., and the samples were stained with hematoxylin and eosin (using standard protocols).
The samples were deparaffinized by incubating in xylene for 2×15 min. and subsequently rehydrated in series of ethanol; 3×2 min. in 99.9% ethanol, 2 min. in 96% ethanol, and 2 min. in 70% ethanol. The samples were then rinsed in dH2O, stained in hematoxylin for 40 sec., rinsed in dH2O for 5 min., and stained in eosin for 46 sec. The samples were dehydrated in ethanol: 2×2 min. in 96% ethanol, 2×2 min in 99.9% ethanol, and finally cleared up in xylene for at least 30 min before mounting the samples using Eukitt mounting medium (Sigma-Aldrich) and cover glass.
The number of follicles at each developmental stage was counted using an inverted research microscope (DM14000B, Leica Microsystems, Germany). The follicles of every 3rd to 4th section of each ovary were counted and the distribution of follicles in the different stages in percentage was determined.

[1] = 30 μM 3PO, ovaries cultured four days, only healthy follicles counted
[2] = Table 1, effect with a figure cited
[3] = Table 2, effect with a figure cited

SMILES: O=C(C=Cc1cccnc1)c1ccncc1 [3PO, 3-(3-pyridinyl)-1-(4-pyridinyl)-2-propen-1-one]
- primary follicles [1]: 26.60±11.24%
- primordial follicles [1]: 63.11±8.83%
- secondary follicles [1]: 11.58±9.07%
- health of follicles in treated ovaries (3PO treated ovaries): several of the follicles seemed atretic
- Effect [2]: promotes
- Effect [3]: promotes
- effect on primordial-to-primary follicle transition / primordial follicle activation: promote primordial-to-primary transition

SMILES: NC(=O)c1ncn([C@@H]2O[C@H](CO)[C@@H](O)[C@H]2O)c1N [AICAR, 5-aminoimidazole-4-carboxamide-1β-D-ribofuranoside]
- follicles (stage not given; activation of primordial follicles inhibited) (0.5 mM AICAR (n=1), data not shown): 83.83±3.06%
- primary follicles (1 mM AICAR, four days): 10.82±4.98%
- primordial follicles (1 mM AICAR, four days): 86.02±5.84%
- secondary follicles (1 mM AICAR, four days): 3.0±3.09%
- health of growing follicles in treated ovaries (AICAR 0.1-1 mM, four days): growing follicles within the ovary tended to appear unhealthy; also recorded: too harsh for the growing follicles
- Effect [2]: promotes
- Effect [3]: promotes
- effect on primordial-to-primary follicle transition / primordial follicle activation: suppress the primordial-to-primary follicle transition

SMILES: CC(C)[C@@H](CS(=O)(=O)C(C)C)N1C(=O)[C@@](C)(CC(=O)O)C[C@H](c2cccc(Cl)c2)[C@H]1c1ccc(Cl)cc1 [AMG-232, 2-[(3R,5R,6S)-5-(3-chlorophenyl)-6-(4-chlorophenyl)-3-methyl-1-[(2S)-3-methyl-1-propan-2-ylsulfonylbutan-2-yl]-2-oxopiperidin-3-yl]acetic acid]
- Effect (Table 1, marked (ongoing)): promotes
- Effect (Table 2, marked (ongoing)): promotes

SMILES: CCN1[C@@H](C(=O)NC23CCC(C(=O)O)(CC2)CC3)[C@H](c2cccc(Cl)c2F)[C@]2(C(=O)Nc3cc(Cl)ccc32)C12CCCCC2 [APG-115]
- Effect (Table 1, marked (ongoing)): promotes
- Effect (Table 2, marked (ongoing)): promotes

SMILES: CCOc1cc2ncc(C#N)c(Nc3ccc(OCc4ccccn4)c(Cl)c3)c2cc1NC(=O)/C=C/CN(C)C [AVE1642, (E)-N-[4-[3-chloro-4-(pyridin-2-ylmethoxy)anilino]-3-cyano-7-ethoxyquinolin-6-yl]-4-(dimethylamino)but-2-enamide]
- Effect (Table 1, marked (ongoing)): promotes
- Effect (Table 2, marked (ongoing)): promotes

SMILES: CN(C)C/C=C/C(=O)Nc1cc2c(Nc3ccc(F)c(Cl)c3)ncnc2cc1O[C@H]1CCOC1 [Afatinib, (E)-N-[4-(3-chloro-4-fluoroanilino)-7-[(3S)-oxolan-3-yl]oxyquinazolin-6-yl]-4-(dimethylamino)but-2-enamide]
- Effect (Table 1, marked (ongoing)): promotes
- Effect (Table 2, marked (ongoing)): promotes

SMILES: Nc1cc(-c2ccncc2)c[nH]c1=O [Amrinone, 3-amino-5-pyridin-4-yl-1H-pyridin-2-one]
- Effect (Table 1, marked (ongoing)): promotes
- Effect (Table 2, marked (ongoing)): promotes

SMILES: COC(=O)C1=C(C)NC(C)=C([N+](=O)[O-])C1c1ccccc1C(F)(F)F (stereo not drawn) [BAY 1217389, methyl 2,6-dimethyl-5-nitro-4-[2-(trifluoromethyl)phenyl]-1,4-dihydropyridine-3-carboxylate]
- Effect (Table 1, marked (ongoing)): promotes
- Effect (Table 2, marked (ongoing)): promotes

SMILES: CNC(=O)c1cc(Oc2ccc(NC(=O)Nc3ccc(Cl)c(C(F)(F)F)c3)cc2)ccn1 [BIIB022, 4-[4-[[4-chloro-3-(trifluoromethyl)phenyl]carbamoylamino]phenoxy]-N-methyl-pyridine-2-carboxamide]
- Effect (Table 1, marked (ongoing)): promotes
- Effect (Table 2, marked (ongoing)): promotes

SMILES: Cc1c(NC(=O)OC[C@@H]2COCCN2)cn2ncnc(Nc3ccc4c(cnn4Cc4cccc(F)c4)c3)c12 [BMS-599626, [(3S)-morpholin-3-yl]methyl N-[4-[[1-[(3-fluorophenyl)methyl]indazol-5-yl]amino]-5-methylpyrrolo[2,1-f][1,2,4]triazin-6-yl]carbamate]
- Effect (Table 1, marked (ongoing)): promotes
- Effect (Table 2, marked (ongoing)): promotes

SMILES: Nc1cc(C(F)(F)F)c(-c2cc(N3CCOCC3)nc(N3CCOCC3)n2)cn1 [Buparlisib, 5-(2,6-dimorpholinopyrimidin-4-yl)-4-(trifluoromethyl)pyridin-2-amine]
- Effect (Table 1, marked (ongoing)): promotes
- Effect (Table 2, marked (ongoing)): promotes

SMILES: COc1cc2c(cc1OC(C)C)[C@H](c1ccc(Cl)cc1)N(c1ccc(N(C)CC3CCC(N4CCN(C)C(=O)C4)CC3)cc1)C(=O)C2 (stereo partly drawn) [CGM097, (1S)-1-(4-chlorophenyl)-6-methoxy-2-[4-[methyl-[[4-(4-methyl-3-oxopiperazin-1-yl)cyclohexyl]methyl]amino]phenyl]-7-propan-2-yloxy-1,4-dihydroisoquinolin-3-one]
- Effect (Table 1, marked (ongoing)): promotes
- Effect (Table 2, marked (ongoing)): promotes

SMILES: COc1cc(N2CCC(N3CCN(C)CC3)CC2)ccc1Nc1nc2c(c(Nc3ccccc3S(=O)(=O)NC(C)C)n1)CCN2 [CT-707]
- Effect (Table 1, marked (ongoing)): promotes
- Effect (Table 2, marked (ongoing)): promotes

SMILES: O=C1CCc2cc(OCCCCc3nnnn3C3CCCCC3)ccc2N1 [Cilostazol, 6-[4-(1-cyclohexyltetrazol-5-yl)butoxy]-3,4-dihydro-1H-quinolin-2-one]
- Effect (Table 1, marked (ongoing)): promotes
- Effect (Table 2, marked (ongoing)): promotes

SMILES: CC1(C)CCC2(CC1)N[C@@H](C(=O)N[C@@H]1CC[C@@H](C(N)=O)OC1)[C@H](c1ccnc(Cl)c1F)[C@]21C(=O)Nc2cc(Cl)ccc21.Cc1ccc(S(=O)(=O)O)cc1 [DS-3032b, L-Erythro-hexonamide, 2,6-anhydro-5-((((3′R,4'S,5′R)-6″-chloro-4′-(2-chloro-3-fluoro-4-pyridinyl)-1″,2″-dihydro-4,4-dimethyl-2″-oxodispiro(cyclohexane-1,2′-pyrrolidine-3′,3″-(3H)indol)-5′-yl)carbonyl)amino)-3,4,5-trideoxy-, 4-methylbenzenesulfon]
- Effect (Table 1, marked (ongoing)): promotes
- Effect (Table 2, marked (ongoing)): promotes

SMILES: Cn1c(=O)n(-c2ccc(C(C)(C)C#N)cc2)c2c3cc(-c4cnc5ccccc5c4)ccc3ncc21 [Dactolisib, -methyl-2-(4-(3-methyl-2-oxo-8-(quinolin-3-yl)-2,3-dihydro-1H-imidazo[4,5-c]quinolin-1-yl)phenyl)propanenitrile]
- Effect (Table 1, marked (ongoing)): promotes
- Effect (Table 2, marked (ongoing)): promotes

SMILES: OCCN(CCO)c1nc(N2CCCCC2)c2nc(N(CCO)CCO)nc(N3CCCCC3)c2n1 [Dipyridamole, 2-[[2-[bis(2-hydroxyethyl)amino]-4,8-di(piperidin-1-yl)pyrimido[5,4-d]pyrimidin-6-yl]-(2-hydroxyethyl)amino]ethanol]
- Effect (Table 1, marked (ongoing)): promotes
- Effect (Table 2, marked (ongoing)): promotes

SMILES: c1cc(-c2cnn3cc(-c4ccc(OCCN5CCCCC5)cc4)cnc23)ccn1 [Dorsomorphin]
- primary follicles (5 μM dorsomorphin, four days): 12.78±2.23%
- secondary follicles (5 μM dorsomorphin, four days): 15.87±3.06%
- primordial follicles (5 μM dorsomorphin, four days, own control contaminated, compared with control of another experiment): 71.32±5.50%

SMILES: Cn1c(=O)c2c(ncn2CC(O)CO)n(C)c1=O (stereo not drawn) [Dyphylline, 7-(2,3-dihydroxypropyl)-1,3-dimethylpurine-2,6-dione]
- effect on follicle distribution (10 and 100 μM Dyphylline, 96 hours, number too small for statistics): has the potential to activate primordial follicle distribution
- Effect [2]: Promotes
- Effect [3]: Promotes
- effect on primordial-to-primary follicle transition / primordial follicle activation: activation of primordial follicles

SMILES: COc1ncc(-c2nc3c(n2C(C)C)[C@H](c2ccc(Cl)cc2)N(c2cc(Cl)cn(C)c2=O)C3=O)c(OC)n1 [HDM201, (6S)-5-(5-chloro-1,2-dihydro-1-methyl-2-oxo-3-pyridinyl)-6-(4-chlorophenyl)-2-(2,4-dimethoxy-5-pyrimidinyl)-5,6-dihydro-1-(1-methylethyl)-Pyrrolo[3,4-d]imidazol-4(1H)-one]
- Effect (Table 1, marked (ongoing)): promotes
- Effect (Table 2, marked (ongoing)): promotes
